Patent publication US11382956B2, “Amylin analogues” (Zealand Pharma A/S, priority 2016, dated 2022)
Numbered stars: 1 amine (or outer) side, 2 acyl side, 3 side chain; on linkers, the order of the positions; unused ones are H or OH. Bridge positions count the residues as written; N and C are the ends. Square brackets hold non-standard residues; d marks the D form. Peptide text beside a SMILES is read from it. * marks the point of attachment. C20 diacid = O=C(O)CCCCCCCCCCCCCCCCCCC(=O)*; γGlu = O=C(O)[C@H](CCC(=O)[*:2])N[*:1]; Hyp = O=C(O)[C@@H]1C[C@@H](O)CN1; NMeI = CC[C@H](C)[C@H](NC)C(=O)O; Aad = N[C@@H](CCCC(=O)O)C(=O)O; Orn = NCCC[C@H](N)C(=O)O; Sar = CNCC(=O)O

Assays:
[1] = target: T1, recombinant human calcitonin receptor (hCT-R) (Homo sapiens, UniProt P30988); assay: hCT-R cAMP assay (AlphaScreen) in 1321N1 cells; type: cell-based; conditions: cAMP formation, 45 min stimulation
T1 construct: host or cells: human astrocytoma cell line 1321N1
T1 sequence (P30988 25-474): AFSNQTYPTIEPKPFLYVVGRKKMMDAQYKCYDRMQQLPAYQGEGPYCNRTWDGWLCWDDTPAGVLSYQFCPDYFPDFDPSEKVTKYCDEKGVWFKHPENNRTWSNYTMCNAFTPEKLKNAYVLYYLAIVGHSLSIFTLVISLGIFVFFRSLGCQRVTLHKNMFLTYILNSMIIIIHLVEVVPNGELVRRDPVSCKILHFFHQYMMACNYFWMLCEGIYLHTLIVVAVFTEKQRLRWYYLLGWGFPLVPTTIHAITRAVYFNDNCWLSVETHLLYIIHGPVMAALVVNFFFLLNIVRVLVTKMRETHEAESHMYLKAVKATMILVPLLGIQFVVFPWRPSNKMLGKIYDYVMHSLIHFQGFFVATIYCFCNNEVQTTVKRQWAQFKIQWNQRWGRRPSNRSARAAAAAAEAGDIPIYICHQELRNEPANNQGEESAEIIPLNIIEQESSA
Outline: (§1)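 1321N1 astrocytoma cells expressing recombinant human calcitonin receptor alone or with RAMP3 (AMY3) stimulated 45 min at room temperature with peptide in IBMX-containing buffer. cAMP quantified by AlphaScreen after 1 h bead incubation; EC50 fitted from at least 7 concentrations.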

[2] = target: T2, recombinant human amylin 3 receptor (hAMYR3) (Homo sapiens, UniProt O60896+P30988); assay: hAMYR3 cAMP assay (AlphaScreen) in 1321N1 cells; type: cell-based; conditions: cAMP formation, 45 min stimulation
T2 construct: host or cells: human astrocytoma cell line 1321N1
T2 sequence (P30988 25-474): T1 sequence (P30988 25-474)
T2 sequence (O60896 24-148 partner): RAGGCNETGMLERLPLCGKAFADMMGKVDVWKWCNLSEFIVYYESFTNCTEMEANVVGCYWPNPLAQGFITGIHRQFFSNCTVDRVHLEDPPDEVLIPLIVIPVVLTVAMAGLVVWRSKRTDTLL
Outline: as §1

EC50 [1] [nM] | EC50 [2] [nM] | Structure (SMILES)
1.23 | 0.268 | CC[C@H](C)[C@@H](C(=O)N[C@@H](CC(C)C)C(=O)N[C@@H](CO)C(=O)N[C@@H](CO)C(=O)N[C@H](C(=O)N[C@@H](CCC(=O)O)C(=O)N[C@H](C(=O)NCC(=O)N[C@@H](CO)C(=O)N[C@@H](CC(N)=O)C(=O)N[C@H](C(=O)N1C[C@H](O)C[C@H]1C(N)=O)[C@@H](C)O)C(C)C)[C@@H](C)O)N(C)C(=O)[C@H](C)NC(=O)CN(C)C(=O)[C@H](Cc1ccccc1)NC(=O)[C@@H](NC(=O)CNC(=O)[C@H](CCCNC(=N)N)NC(=O)[C@H](CCC(N)=O)NC(=O)[C@H](CC(C)C)NC(=O)[C@H](Cc1ccccc1)NC(=O)[C@H](CCCC(=O)O)NC(=O)[C@H](C)NC(=O)[C@H](CC(C)C)NC(=O)[C@H](CCCNC(=N)N)NC(=O)[C@H](CCC(=O)O)NC(=O)[C@@H](NC(=O)[C@H](C)NC(=O)[C@@H]1CCCNC(=O)C[C@H](NC(=O)[C@H](CCCNC(=N)N)NC(=O)CC[C@H](NC(=O)CCCCCCCCCCCCCCCCCCC(=O)O)C(=O)O)C(=O)N[C@@H](CCC(N)=O)C(=O)N[C@@H]([C@@H](C)O)C(=O)N[C@@H](C)C(=O)N[C@@H]([C@@H](C)O)C(=O)N1)[C@@H](C)O)[C@@H](C)O [Compound 28, [19CD]-isoGlu-RD()QTAT-Orn()-ATERLA-Aad-FLQRGTF-Gly(Me)-A-Ile(Me)-LSSTEVGSNT-Hyp-NH2] ({C20 diacid-γGlu}-RDQTAT[Orn]ATERLA[Aad]FLQRGTF[Sar]A[NMeI]LSSTEVGSNT[Hyp]-NH2; lactam 2-7)
0.227 | 0.066 | CC[C@H](C)[C@@H](C(=O)N[C@@H](CC(C)C)C(=O)N[C@@H](CO)C(=O)N[C@@H](CO)C(=O)N[C@H](C(=O)N[C@@H](CCC(=O)O)C(=O)N[C@H](C(=O)NCC(=O)N[C@@H](CO)C(=O)N[C@@H](CC(N)=O)C(=O)N[C@H](C(=O)N1C[C@H](O)C[C@H]1C(N)=O)[C@@H](C)O)C(C)C)[C@@H](C)O)N(C)C(=O)[C@H](C)NC(=O)CN(C)C(=O)[C@H](Cc1ccccc1)NC(=O)[C@H](C)NC(=O)[C@H](C)NC(=O)[C@H](CCCNC(=N)N)NC(=O)[C@H](CCC(N)=O)NC(=O)[C@H](CC(C)C)NC(=O)[C@H](Cc1ccccc1)NC(=O)[C@H](CCCC(=O)O)NC(=O)[C@H](C)NC(=O)[C@H](CC(C)C)NC(=O)[C@H](CCCNC(=N)N)NC(=O)[C@H](CCC(=O)O)NC(=O)[C@@H](NC(=O)[C@H](C)NC(=O)[C@@H]1CCCCNC(=O)C[C@H](NC(=O)[C@H](CCCNC(=N)N)NC(=O)CC[C@H](NC(=O)CCCCCCCCCCCCCCCCCCC(=O)O)C(=O)O)C(=O)NCC(=O)N[C@@H]([C@@H](C)O)C(=O)N[C@@H](C)C(=O)N[C@@H]([C@@H](C)O)C(=O)N1)[C@@H](C)O [Compound 31, [19CD]-isoGlu-RD()GTATK()ATERLA-Aad-FLQRAAF-Gly(Me)-A-Ile(Me)-LSSTEVGSNT-Hyp-NH2] ({C20 diacid-γGlu}-RDGTATKATERLA[Aad]FLQRAAF[Sar]A[NMeI]LSSTEVGSNT[Hyp]-NH2; lactam 2-7)
